Reference: the supplement of paper PMC8671470
± gives the standard deviation of the averaged measurements.

How the values were obtained:
Conditions in all cases: 72 h
KCL-22 [1] = tested on: KCL-22
Procedure, shortened: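 The IC50 was read from log-logistic dose–response fits. Fifteen myeloid leukaemia lines were exposed for 72 h at 37 °C with 5% CO2 to five tenfold doses from 1 to 10,000 nM in duplicate. ATP luminescence, normalised to vehicle and to a 10 µM positive control, was fitted with four parameters.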

HL-60 [2] = assay: cell viability (% survival relative to DMSO control); higher = less cytotoxic
Procedure, shortened: (§1)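 For each screen, HL-60 cells in RPMI 1640 with 10% FBS carried either DMSO or 100 nM of one of three metabolic inhibitors while the full library was applied at five tenfold concentrations, 1–10,000 nM, in duplicate. Plates were 384-well and were kept 72 h at 37 °C, 5% CO2. Viability, measured by CellTiter-Glo, was normalised to wells with DMSO and with 10 μM proteasome inhibitor. Where area under the curve appears, it was fitted by four-parameter log-logistic models in drc and PharmacoGx.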

BV-173 = assay: cell viability (% survival relative to DMSO control, bortezomib = 0%); higher = less cytotoxic
Procedure, shortened: (§2)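 Percent survival is reported as the mean of duplicate wells. Cells from 10 AML and 5 CML lines were plated in 384-well plates containing compounds at 1, 10, 100, 1000 or 10000 nM and kept for 72 h at 37 °C in 5% CO2. Readout used CellTiter-Glo luminescence, scaled so that vehicle equals 100% and a 10 µM positive control equals 0%.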

HEL = assay: as above
Procedure, shortened: as §2

HL-60 [3] = assay: as above
Procedure, shortened: as §2

K-562 = assay: as above
Procedure, shortened: as §2

KCL-22 [4] = assay: as above
Procedure, shortened: as §2

KG-1 = assay: as above
Procedure, shortened: as §2

KU-812 = assay: as above
Procedure, shortened: as §2

LAMA-84 = assay: as above
Procedure, shortened: as §2

ML-2 = assay: as above
Procedure, shortened: as §2

MOLM-13 = assay: as above
Procedure, shortened: as §2

MV4-11 = assay: as above
Procedure, shortened: as §2

Mono-Mac-6 = assay: as above
Procedure, shortened: as §2

NOMO-1 = assay: as above
Procedure, shortened: as §2

SHI-1 = assay: as above
Procedure, shortened: as §2

THP-1 = assay: as above
Procedure, shortened: as §2

HL-60 [5] = assay: area under dose-response curve (viability, 1 nM-10 uM) (fraction (0-1)); higher = more sensitive
Procedure, shortened: as §1

CC1Cc2ccccc2N1NC(=O)c1ccc(Cl)c(S(N)(=O)=O)c1 (stereo not given) [Indapamide]
Conditions	IC50 (cell viability) [µM]
KCL-22 [1]	> 10

cell viability [%], HL-60 [2]
Conditions	0.001 µM	0.01 µM	0.1 µM	1 µM	10 µM
co-treatment: AZD3965 100 nM	103 ± 4.1	104 ± 2	99.4 ± 5.3	103.1 ± 0.94	95.9 ± 1.7
co-treatment: DMSO vehicle	98.1 ± 3.9	104 ± 4.2	101 ± 1.1	99.5 ± 3.2	103.2 ± 0.48
co-treatment: GSK2194069 100 nM	103.4 ± 0.98	107.5 ± 0.58	94.7 ± 4.5	98.3 ± 8.1	99.6 ± 4.5
co-treatment: pictilisib 100 nM	100 ± 10	112 ± 10	97.14 ± 0.93	92.8 ± 8.5	98.4 ± 2.1

Conditions	area under dose-response curve, co-treatment: AZD3965 100 nM	area under dose-response curve, co-treatment: DMSO vehicle	area under dose-response curve, co-treatment: GSK2194069 100 nM	area under dose-response curve, co-treatment: pictilisib 100 nM	cell viability, 1 nM [%]	cell viability, 10 nM [%]	cell viability, 100 nM [%]	cell viability, 1000 nM [%]	cell viability, 10000 nM [%]
BV-173	–	–	–	–	116	93.9	95.3	99.7	91.9
HEL	–	–	–	–	107	112	101	105	103
HL-60 [3]	–	–	–	–	87.7	95	81.6	93	102
HL-60 [5]	< 0.0301	< 0.0301	< 0.0301	< 0.0301	–	–	–	–	–
K-562	–	–	–	–	112	97.3	120	100	102
KCL-22 [4]	–	–	–	–	89.3	105	77.6	102	105
KG-1	–	–	–	–	86.7	105	101	97.3	101
KU-812	–	–	–	–	89.8	111	95.8	104	89.7
LAMA-84	–	–	–	–	92.2	111	98.1	94.3	91.3
ML-2	–	–	–	–	94.1	98.2	97.5	93.8	100
MOLM-13	–	–	–	–	100	93.3	96.5	100	86.1
MV4-11	–	–	–	–	111	98.4	102	97.8	99.4
Mono-Mac-6	–	–	–	–	99.6	112	112	110	90.9
NOMO-1	–	–	–	–	98.2	103	101	101	102
SHI-1	–	–	–	–	92.5	93.8	113	102	98
THP-1	–	–	–	–	93.5	105	93.2	95.4	97

N=C(N)c1ccc(N=NNc2ccc(C(=N)N)cc2)cc1 [Diminazene]
Conditions	IC50 (cell viability) [µM]
KCL-22 [1]	> 10

cell viability [%], HL-60 [2]
Conditions	0.001 µM	0.01 µM	0.1 µM	1 µM	10 µM
co-treatment: AZD3965 100 nM	94.9 ± 10	98.5 ± 3.5	106 ± 4.5	93.1 ± 5.5	101 ± 8.5
co-treatment: DMSO vehicle	101.5 ± 0.37	100.7 ± 0.87	99.712 ± 0.039	101.22 ± 0.055	100.7 ± 0.46
co-treatment: GSK2194069 100 nM	99.7 ± 7.5	100 ± 4	105 ± 5.9	100.3 ± 0.82	101.5 ± 0.3
co-treatment: pictilisib 100 nM	83.5 ± 15	98 ± 3.4	107.8 ± 0.59	97.2 ± 1.2	104 ± 4.4

Conditions	area under dose-response curve, co-treatment: AZD3965 100 nM	area under dose-response curve, co-treatment: DMSO vehicle	area under dose-response curve, co-treatment: GSK2194069 100 nM	area under dose-response curve, co-treatment: pictilisib 100 nM	cell viability, 1 nM [%]	cell viability, 10 nM [%]	cell viability, 100 nM [%]	cell viability, 1000 nM [%]	cell viability, 10000 nM [%]
BV-173	–	–	–	–	104	103	106	106	103
HEL	–	–	–	–	103	109	111	93.8	111
HL-60 [3]	–	–	–	–	83	102	123	116	96.6
HL-60 [5]	< 0.0301	< 0.0301	< 0.0301	< 0.0301	–	–	–	–	–
K-562	–	–	–	–	102	99.3	119	94.5	96.7
KCL-22 [4]	–	–	–	–	102	96.6	114	84.4	72.7
KG-1	–	–	–	–	115	109	114	97.7	88.9
KU-812	–	–	–	–	89.2	100	95.5	101	85.7
LAMA-84	–	–	–	–	105	103	108	105	98.3
ML-2	–	–	–	–	104	98.7	100	106	93.7
MOLM-13	–	–	–	–	94.4	98.1	101	73.7	93.9
MV4-11	–	–	–	–	113	100	94.6	92.2	77.9
Mono-Mac-6	–	–	–	–	97	100	107	105	98.2
NOMO-1	–	–	–	–	106	99	104	102	86.9
SHI-1	–	–	–	–	100	102	116	95.3	95.8
THP-1	–	–	–	–	105	99.7	107	103	86.3
